Assay results taken from PubChem BioAssay AID180 (DTP/NCI, 2004).

System: BDF1 mice, Adenocarcinoma 755 s.c., tumor weight T/C
Experiment: NCI In Vivo Anticancer Drug Screen. Data for tumor model Adenocarcinoma 755 (subcutaneous) in B6D2F1 (BDF1) mice
Conditions: endpoint: mean tumor weight, higher = larger tumour
Method in brief: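 Readout: T/C, i.e. treated-group measurement over vehicle-control measurement. Endpoint is survival or tumor size in tumor-bearing mice given compound.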

[1] = dose: 20.0 mg/kg/injection, schedule: Q01DX011 (ip), vehicle: methylcellulose (MC)
[2] = dose: 50.0 mg/kg/injection, schedule: Q01DX011 (ip), vehicle: methylcellulose (MC)
[3] = dose: 0.75 mg/kg/injection, schedule: Q01DX011 (ip), vehicle: water

`C[C@]12CC[C@H](O)CC1=CC[C@@H]1[C@@H]2[C@@H](O)C[C@@]2(C)[C@H]1CC[C@]2(C)O` was tested, and the T/C (dose: 100.0 mg/kg/injection, schedule: Q01DX011 (sc), vehicle: steriod suspending solution) was 96 % of control and the T/C (dose: 300.0 mg/kg/injection, schedule: Q01DX011 (sc), vehicle: steriod suspending solution) was 93 % of control.
`COC1C(OC(=O)/C=C/C=C/C=C/C=C/C(=O)O)CCC2(CO2)C1C1(C)OC1CC=C(C)C` (stereo unspecified) was tested, and the T/C (dose: 2.5 mg/kg/injection, schedule: Q01DX011 (ip), vehicle: other) was 49 % of control, the T/C (dose: 5.0 mg/kg/injection, schedule: Q01DX011 (ip), vehicle: other) was 61 % of control and the T/C (dose: 5.0 mg/kg/injection, schedule: Q01DX011 (ip), vehicle: saline) was 78 % of control. The T/C (dose: 10.0 mg/kg/injection, schedule: Q01DX011 (ip), vehicle: methylcellulose (MC)) was 38 % of control, the T/C (dose: 10.0 mg/kg/injection, schedule: Q01DX011 (ip), vehicle: other) was 40 % of control and the T/C (dose: 10.0 mg/kg/injection, schedule: Q01DX011 (ip), vehicle: saline) was 94 % of control. The T/C [1] was 28 % of control, the T/C (dose: 20.0 mg/kg/injection, schedule: Q01DX011 (ip), vehicle: other) was 22 % of control and the T/C (dose: 20.0 mg/kg/injection, schedule: Q01DX011 (ip), vehicle: saline) was 49 % of control. The T/C (dose: 40.0 mg/kg/injection, schedule: Q01DX011 (ip), vehicle: methylcellulose (MC)) was 24 % of control, the T/C (dose: 40.0 mg/kg/injection, schedule: Q01DX011 (ip), vehicle: other) was 18 % of control and the T/C (dose: 40.0 mg/kg/injection, schedule: Q01DX011 (ip), vehicle: saline) was 63 % of control. For the same compound, the T/C (dose: 80.0 mg/kg/injection, schedule: Q01DX011 (ip), vehicle: other) was 26 % of control and the T/C (dose: 80.0 mg/kg/injection, schedule: Q01DX011 (ip), vehicle: saline) was 58 % of control.
In the case of `Fc1cccc(CSc2ncnc3c2ncn3C2CCCCO2)c1` (stereo unspecified), the T/C [1] is reported as 13 % of control and the T/C (dose: 65.0 mg/kg/injection, schedule: Q01DX011 (ip), vehicle: methylcellulose (MC)) is reported as 1 % of control.
`CCOC(=O)c1cc[c]([Sb](=[O])([OH])[OH])cc1` was tested, and the T/C (dose: 12.0 mg/kg/injection, schedule: Q01DX011 (ip), vehicle: methylcellulose (MC)) was 116 % of control, the T/C (dose: 15.0 mg/kg/injection, schedule: Q01DX011 (ip), vehicle: carboxymethylcellulose (CMC)) was 70 % of control and the T/C [2] was 55 % of control. The T/C (dose: 100.0 mg/kg/injection, schedule: Q01DX011 (ip), vehicle: methylcellulose (MC)) was 102 % of control.
With `OC1CC([CH2][Hg][I])OC([CH2][Hg][I])C1` (stereo unspecified) the T/C (dose: 25.0 mg/kg/injection, schedule: Q01DX011 (ip), vehicle: carboxymethylcellulose (CMC)) was 60 % of control and the T/C (dose: 50.0 mg/kg/injection, schedule: Q01DX011 (ip), vehicle: carboxymethylcellulose (CMC)) was 30 % of control.
`Nc1nc(SCc2ccccc2[N+](=O)[O-])c2ncn(C3OC(CO)C(O)C3O)c2n1` (stereo unspecified) was tested, and the T/C (dose: 12.5 mg/kg/injection, schedule: Q01DX011 (ip), vehicle: methylcellulose (MC)) was 21 % of control, the T/C (dose: 25.0 mg/kg/injection, schedule: Q01DX011 (ip), vehicle: methylcellulose (MC)) was 7 % of control and the T/C [2] was 2 % of control.
For `C=C(C)[C@H]1Cc2c(ccc3c2O[C@@H]2COc4cc(OC)c(OC)cc4[C@@H]2C3=O)O1`, the T/C (dose: 0.5 mg/kg/injection, schedule: Q01DX011 (ip), vehicle: water) was 93 % of control, the T/C [3] was 96 % of control and the T/C (dose: 1.0 mg/kg/injection, schedule: Q01DX011 (ip), vehicle: water) was 74 % of control. For the same compound, the T/C (dose: 2.0 mg/kg/injection, schedule: Q01DX011 (ip), vehicle: water) was 88 % of control.
In the case of `CO[C@H](C(=O)[C@@H](O)[C@@H](C)O)[C@@H]1Cc2cc3cc(OC4CC(OC5CC(O)C(O)C(C)O5)C(O)C(C)O4)c(C)c(O)c3c(O)c2C(=O)[C@H]1OC1CC(OC2CC(OC3CC(C)(O)C(O)C(C)O3)C(O)C(C)O2)C(O)C(C)O1` (stereo partly specified), the T/C (dose: 0.25 mg/kg/injection, schedule: Q01DX011 (ip), vehicle: saline) is reported as 59 % of control, the T/C (dose: 0.25 mg/kg/injection, schedule: Q01DX011 (ip), vehicle: water) is reported as 72 % of control and the T/C (dose: 0.5 mg/kg/injection, schedule: Q01DX011 (ip), vehicle: saline) is reported as 57 % of control. The T/C [3] was 16 % of control and the T/C (dose: 1.0 mg/kg/injection, schedule: Q01DX011 (ip), vehicle: saline) was 11 % of control.
